Measurements taken from ChEMBL document CHEMBL5523719, “Structure-activity relationship study of new carbazole sulfonamide derivatives as anticancer agents with dual-target mechanism” (Eur J Med Chem, 2024).
Activity calls are given as the source filed them. No cut-off for these calls is given here.

Key:
MIA PaCa-2 = experiment: Antiproliferation activity against human MIA PaCa-2 cells measured after 72 hrs incubation by MTT assay; format: functional, cell-based; details: MIA PaCa-2, 72 h
NCI-H460 = experiment: Antiproliferation activity against human NCI-H460 cells measured after 72 hrs incubation by MTT assay; format: functional, cell-based; details: NCI-H460, 72 h
KB = experiment: Antiproliferation activity against human KB cells measured after 72 hrs incubation by MTT assay; format: functional, cell-based
L02 = experiment: Antiproliferation activity against human L02 cells measured after 72 hrs incubation by MTT assay; format: functional, cell-based; details: L02, 72 h
[1] = Solubility of the compound; format: physicochemical
Bel-7402 = experiment: Antiproliferation activity against human Bel-7402 cells measured after 72 hrs incubation by MTT assay; format: functional, cell-based; details: Bel-7402, 72 h
MDA-MB-231 = experiment: Antiproliferation activity against human MDA-MB-231 cells measured after 72 hrs incubation by MTT assay; format: functional, cell-based; details: MDA-MB-231, 72 h
[2] = Clearance in Sprague-Dawley rat at 10 mg/kg, iv; format: ADME, organism-based; details: in vivo
[3] = MRT (0 to last) in Sprague-Dawley rat at 10 mg/kg, iv; format: ADME, organism-based; details: in vivo
[4] = Toxicity in mouse xenografted with human HepG2 cells assessed as body weight change at 10 to 20 mg/kg, iv every other day for 22 days; format: organism-based; details: in vivo, 528 h, dose 10-20 mg/kg, time 22 day
HepG2 [5] = experiment: In vivo antitumor activity against human HepG2 cells xenografted in mouse assessed as inhibition of tumor growth treated iv every other day for 22 days; format: functional, organism-based; details: time 22.0 day
[6] = Half life in Sprague-Dawley rat at 10 mg/kg, iv; format: ADME, organism-based; details: in vivo
[7] = AUC (0 to last) in Sprague-Dawley rat at 10 mg/kg, iv; format: ADME, organism-based; details: in vivo
HepG2 [8] = experiment: In vivo antitumor activity against human HepG2 cells xenografted in mouse assessed as inhibition of tumor growth treated at 20 mg/kg, iv every other day for 22 days relative to control; format: functional; details: HepG2, 528 h, time 22 day, read-out: TGI
[9] = Initial plasma concentration in Sprague-Dawley rat at 10 mg/kg, iv; format: ADME, organism-based
HMEC-1 [10] = experiment: Anti-proliferative activity against human HMEC-1 cells measured after 48 hrs; format: functional, cell-based; details: HMEC-1, 48 h
NCI/ADR-RES = experiment: Antiproliferation activity against human MCF7/ADR cells measured after 72 hrs incubation by MTT assay; format: functional, cell-based
MCF7 [11] = experiment: Antiproliferation activity against human MCF7 cells measured after 72 hrs incubation by MTT assay; format: functional, cell-based; details: MCF7, 72 h
MCF7 [12] = experiment: Induction of cell cycle arrest in human MCF7 cells assessed as accumulation of cells at G2/M phase at 500 nM measured after 24 hrs by flow cytometry (reference value: 22.84%); format: functional
MCF7 [13] = experiment: Induction of cell cycle arrest in human MCF7 cells assessed as accumulation of cells at G0/G1 phase at 500 nM measured after 24 hrs by flow cytometry (reference value: 61.73%); format: functional
MCF7 [14] = experiment: Induction of apoptosis in human MCF7 cells assessed as early apoptotic cells at 50 nM measured after 48 hrs by AnnexinV/PI double staining assays (reference value: 5.32%); format: functional
HMEC-1 [15] = experiment: Anti-migration activity in human HMEC-1 cells assessed as inhibition of cell migration at 5 nM measured after 48 hrs by Scratching assay; format: functional, cell-based
MCF7 [16] = experiment: Induction of apoptosis in human MCF7 cells assessed as late apoptotic cells at 50 nM measured after 48 hrs by AnnexinV/PI double staining assays (reference value: 2.60%); format: functional
MCF7 [17] = experiment: Induction of apoptosis in human MCF7 cells assessed as necrotic cells at 50 nM measured after 48 hrs by AnnexinV/PI double staining assays (reference value: 0.89%); format: functional
HMEC-1 [18] = experiment: Angiogenic activity against human HMEC-1 cells assessed as decrease in vascular area measured after 48 hrs by Endothelial tube formation assay; format: functional, cell-based; details: dose 1-100 nM
MCF7 [19] = experiment: Induction of apoptosis in human MCF7 cells assessed as viable cells at 50 nM measured after 48 hrs by AnnexinV/PI double staining assays (reference value: 91.20%); format: functional; details: read-out: Activity
MCF7 [20] = experiment: Induction of apoptosis in human MCF7 cells assessed as multinuclear cells at 50 nM measured after 24 hrs by fluorescent microscopy; format: functional, cell-based
MCF7 [21] = experiment: In vivo antitumor activity against human MCF7 cells xenografted in BALB/c mouse assessed as decrease in tumor volume treated at 50 mg/kg, iv every other day for 26 days relative to control; format: functional; details: MCF7, 624 h, time 26 day
MCF7 [22] = experiment: In vivo antitumor activity against human MCF7 cells xenografted in BALB/c mouse assessed as inhibition of Ki-67 expression treated at 50 mg/kg, iv every other day for 26 days; format: functional, organism-based; details: time 26.0 day
HepG2 [23] = experiment: In vivo antitumor activity against human HepG2 cells xenografted in mouse assessed as inhibition of tumor growth treated at 50 mg/kg, iv every other day for 22 days relative to control; format: functional; details: HepG2, 528 h, time 22 day, read-out: TGI
MCF7 [24] = experiment: In vivo antitumor activity against human MCF7 cells xenografted in BALB/c mouse assessed as increase in cleaved caspase-3 treated at 50 mg/kg, iv every other day for 26 days; format: functional, organism-based; details: time 26.0 day

| Structure (SMILES) | IC50 (MIA PaCa-2) [nM] | IC50 (NCI-H460) [nM] | IC50 (KB) [nM] | IC50 (L02) [nM] | solubility [1] [µg/mL] | IC50 (Bel-7402) [nM] | IC50 (MDA-MB-231) [nM] | other results |
| --- | --- | --- | --- | --- | --- | --- | --- | --- |
| CN1CCN(Cc2ccc(NS(=O)(=O)c3ccc4c(c3)c3ccc(O)cc3n4C)cc2C(F)(F)F)CC1 | > 400 | > 400 | > 400 | > 400 | – | – | – | – |
| COc1ccc(NS(=O)(=O)c2ccc3c(c2)c2ccc(N)cc2n3C)c(OC)n1 | 58.3 | 33 | 40.4 | 109 | < 100 | 520 | 35.4 | – |
| COc1cc(OC)c(NS(=O)(=O)c2ccc3c(c2)c2ccc(N)cc2n3C)c(OC)c1 | 31 | 14 | 18.1 | 30.9 | – | – | 39.9 | – |
| COc1ccc(NS(=O)(=O)c2ccc3c(c2)c2ccc(NC(=O)CN4CCCCC4)cc2n3C)c(OC)n1.Cl | – | – | – | – | 4700 | 8210 | – | – |
| COc1cc(NS(=O)(=O)c2ccc3c(c2)c2ccc(N)cc2n3C)c(OC)cc1N | 33.2 | 76.3 | 80.2 | 30.9 | – | – | 85.7 | – |
| COc1ccc(NS(=O)(=O)c2ccc3c(c2)c2ccc(NC(=O)[C@@H](N)C(C)C)cc2n3C)c(OC)n1.Cl | – | – | – | – | 4000 | 480 | – | clearance [2]: 72.9 mL/min/kg; MRT last [3]: 7.26 min; Activity [4]: Non-Toxic; TGI (HepG2 [5]): Dose-Dependent Effect; half-life [6]: 34.4 min; AUC(0-t) [7]: 2290 ng·h/mL; inhibition in vivo at 20 mg/kg (HepG2 [8]): 71%; C0 [9]: 22000 ng/mL |
| COc1ccc(NS(=O)(=O)c2ccc3c(c2)c2ccc(NC(=O)CCCN4CCOCC4)cc2n3C)c(OC)n1.Cl | – | – | – | – | 6800 | 8470 | – | – |
| COc1ccc(NS(=O)(=O)c2ccc3c(c2)c2ccc(NC(=O)CN(C)C)cc2n3C)c(OC)n1.Cl | – | – | – | – | 25000 | 1400 | – | – |
| COc1ccc(OC)c(NS(=O)(=O)c2ccc3c(c2)c2ccc(N)cc2n3C)c1 | 19.9 | 25.5 | 18.3 | 11.6 | – | – | 18.9 | – |
| COc1cc(OC)c(NS(=O)(=O)c2ccc3c(c2)c2ccc(N)cc2n3C)cc1Cl | 13.3 | 47.5 | 46 | 18 | – | – | 29 | – |
| COc1ccc(NS(=O)(=O)c2ccc3c(c2)c2ccc(O)cc2n3C)c(OC)c1 | 52.8 | 40.5 | 78.8 | 54.4 | – | – | 82.8 | – |
| COc1ccc(NS(=O)(=O)c2ccc3c(c2)c2ccc(N)cc2n3C)c(OC)c1 | 57.2 | – | – | 42.2 | – | – | 155 | – |
| COc1cc(NS(=O)(=O)c2ccc3c(c2)c2ccc(O)cc2n3C)cc(OC)c1OC | 14.6 | 34.6 | 32 | 43.1 | – | – | 39.2 | – |
| Cn1c2ccc(S(=O)(=O)Nc3cccc(-c4ccn[nH]4)c3)cc2c2ccc(N)cc21 | 61.2 | 325 | 244 | 94.5 | – | – | 72.5 | – |
| COc1ccc(NS(=O)(=O)c2ccc3c(c2)c2ccc(NC(=O)[C@@H](N)CO)cc2n3C)c(OC)n1.Cl | – | – | – | – | 2000 | 1450 | – | Activity [4]: Non-Toxic; TGI (HepG2 [5]): Dose-Dependent Effect |
| COc1cc([C@@H]2c3cc4c(cc3[C@H](O)[C@H]3COC(=O)[C@H]23)OCO4)cc(OC)c1OC [PODOFILOX] | 19.7 | 24.6 | 3.21 | 32.8 | – | 40 | 80.5 | – |
| COc1ccc(NS(=O)(=O)c2ccc3c(c2)c2ccc(NC(=O)CN)cc2n3C)c(OC)n1.Cl | – | – | – | – | 500 | 1200 | – | – |
| COc1ccc(OC)c(NS(=O)(=O)c2ccc3c(c2)c2ccc(O)cc2n3C)c1 | 0.85 | 12.5 | 17.5 | 45.6 | – | – | 0.93 | – |
| COc1ccc(NS(=O)(=O)c2ccc3c(c2)c2ccc(NC(=O)CN4CCN(C)CC4)cc2n3C)c(OC)n1.Cl | – | – | – | – | 27000 | 18700 | – | – |
| COc1ccc(/C=C\c2cc(OC)c(OC)c(OC)c2)cc1O [COMBRETASTATIN A4] | – | – | – | – | – | – | – | IC50 (HMEC-1 [10]): 6.42 nM; IC50 (NCI/ADR-RES): 12.5 nM; IC50 (MCF7 [11]): 32.7 nM; Activity (MCF7 [12]): 3.4%; Activity (MCF7 [13]): 3.41% |
| COc1cc(NS(=O)(=O)c2ccc3c(c2)c2ccc(N)cc2n3C)cc(OC)c1OC | 24.4 | 13.1 | 34.5 | 21 | – | – | 16.1 | – |
| COc1ccc(NS(=O)(=O)c2ccc3c(c2)c2ccc(NC(=O)[C@@H](N)Cc4ccc(O)cc4)cc2n3C)c(OC)n1.Cl | – | – | – | – | 2000 | 1880 | – | – |
| COc1ccc(NS(=O)(=O)c2ccc3c(c2)c2ccc(O)cc2n3C)c(OC)n1 | 51.8 | 43.8 | 104 | 51.6 | < 100 | – | 98.4 | IC50 (HMEC-1 [10]): 6.42 nM; Activity (MCF7 [14]): 39.03%; inhibition (HMEC-1 [15]): Active; Activity (MCF7 [16]): 5.65%; Activity (MCF7 [17]): 0.04%; IC50 (NCI/ADR-RES): 88.2 nM; Activity (HMEC-1 [18]): Dose-Dependent Effect; viability at 0.05 µM (MCF7 [19]): 45.6%; IC50 (MCF7 [11]): 41.5 nM; Activity (MCF7 [20]): Active |
| CC(=O)O[C@H]1C(=O)[C@@]2(C)[C@H]([C@H](OC(=O)c3ccccc3)[C@]3(O)C[C@H](OC(=O)[C@H](O)[C@@H](NC(=O)c4ccccc4)c4ccccc4)C(C)=C1C3(C)C)[C@]1(OC(C)=O)CO[C@@H]1C[C@@H]2O [PACLITAXEL] | – | – | – | – | – | – | – | IC50 (NCI/ADR-RES): 464 nM; IC50 (MCF7 [11]): 28.7 nM |
| COc1ccc(NS(=O)(=O)c2ccc3c(c2)c2ccc(NC(=O)CCN4CCOCC4)cc2n3C)c(OC)n1.Cl | – | – | – | – | 13000 | 13700 | – | – |
| COc1cc(OC)c(NS(=O)(=O)c2ccc3c(c2)c2ccc(O)cc2n3C)cc1Cl | 55.5 | 14.5 | 70 | 33 | – | – | 41.6 | – |
| COc1ccc(NS(=O)(=O)c2ccc3c(c2)c2ccc(N)cc2n3C)cc1 | > 400 | > 400 | > 400 | > 400 | – | – | > 400 | – |
| COc1ccc(/C=C\c2cc(OC)c(OC)c(OC)c2)cc1OP(=O)([O-])[O-].[Na+].[Na+] [FOSBRETABULIN DISODIUM] | 5.26 | 0.29 | 0.66 | 140 | – | – | 3.66 | inhibition in vivo at 50 mg/kg (MCF7 [21]): 77%; Activity [4]: Non-Toxic; Activity (MCF7 [22]): Active; inhibition in vivo at 50 mg/kg (HepG2 [23]): 72%; Activity (MCF7 [24]): Active |
| COc1ccc(NS(=O)(=O)c2ccc3c(c2)c2ccc(NC(=O)CCN(C)C)cc2n3C)c(OC)n1.Cl | – | – | – | – | 11000 | 5020 | – | – |
